Measured values published in patent US9162993B2, “Preparation and pharmaceuticals of biphenyl benzamide-derived derivatives” (NATIONAL DEFENSE MEDICAL CENTER, priority 2012, dated 2015).

How the values were obtained:
[1] = MTT assay, RAW264.7 cell viability; assay type: cell-based; settings: mouse; RAW 264.7 cells; cytotoxic concentration that produces 50% cell death
Procedure: (§1) The compounds 1 to 24 of the present invention is tested by three pharmacological activity tests as follows: (1) MTT assay to test the RAW264.7 cell (murine monocyte/macrophage cell line) viability; (2) Tartrate-resistant acid phosphatase (TRAP) staining and activity analysis to investigate the cell differentiation activity; (3) The activity test of bone resorption (Pit formation assay).
(§2) The synthesized difunisal derivatives, compounds 1 to 24, were pharmacologically tested to be identified the relationship between their structure and activity. Cell viability was measured by MTT assay in RAW 264.7 cells upon treatment with compounds at 5 μM. CC50 is the cytotoxic concentration that produces 50% (CC50) cell death. […] The multinucleated osteoclasts could be formed by RANKL-induced macrophage cell line […]. RAW 264.7 cells were cultured with the indicated in the presence of drug and RANKL (100 ng/mL). Numbers of TRAP-positive (TRAP^+) multinucleated cells (MNCs) were counted in the presence of RANKL to identify the relationship between osteoclast and bone formation. […] The compound 16 performed the best inhibitory effect in the TRAP staining. The compound 16 was a derivate from compound 4 and its structure was related to compound 4. Therefore, the compound 4 and 16 were performed by TRAP assay to evaluate the effect on osteoclast differentiation by different concentration of compounds. […] According to above result, it can be speculated that: (1) Due to different substitutes on benzene ring of difunisal, the inhibitory ability of RANKL-induced osteoclast differentiation would be different. (2) Due to the electron-withdrawing group substitutes of R1 and R4 on benzene ring, or electron-withdrawing group substitutes derivatives of R2 on benzene ring, such as compound 4. (R1═F and R4═F), compound 6 (R2═CF3), compound 9 (R2═CN) and compound 16 (R1═F and R4═F), (3) compound 4 (R1═F and R4═F) and compound 6 (R2═CF3), a cyclic derivate compound 16 (R1═F and R4═F) and compound 18 (R2═CF3), the inhibitory activity would be stronger.

[2] = test system: RAW 264.7 cells; test: MTT assay, RAW264.7 cell viability; assay type: cell-based; settings: MTT assay, compounds at 5 μM
Procedure: as §1, §2

[3] = test system: RANKL-induced osteoclast differentiation in RAW 264.7 cells; test: TRAP staining, RANKL-induced osteoclast differentiation (TRAP+ multinucleated cells); assay type: cell-based, murine; settings: Mus musculus, RAW264.7; RAW 264.7 cells, RANKL (100 ng/mL), compounds at 5 μM, TRAP-positive multinucleated cells; read-out: Inhibition of MNCs (%)
Procedure: as §1, §2

[4] = test system: NO production; test: Measurement of NO concentrations (Griess reaction) in porcine chondrocytes; assay type: cell-based; settings: Sus scrofa, Chondrocyte, nitrite in supernatants, read-out: anti-inflammatory IC50 (μM) on NO production
Procedure: Porcine cartilage was obtained from the hind leg joints of pigs. The synthesis of chondrocytes from cartilage was performed according to our previous report. After enzymatic digestion of articular cartilage with 2 mg/mL protease in serum-free Dulbecco's modified Eagle's medium (DMEM)/antibiotics, the specimens were then digested overnight with 2 mg/mL collagenase I and 0.9 mg/ml, hyaluronidase in DMEM containing 10% fetal bovine serum (FBS). The cells were collected, passed through a cell strainer (Becton Dickinson, Mountain View, Calif., USA), and cultured in DMEM containing 10% […] and antibiotics for 3-4 days before use.
The measurement of NO release was reflected by determination of its stable end product, nitrite, in supernatants. The Griess reaction was performed with the concentrations of nitrite measured by a spectrophotometer. In brief, an aliquot (100 μL) of culture supernatant was incubated with 50 μL of 0.1% sulfanilamide in 5% phosphoric acid and 50 μL of 0.1% N-1-naphthyl-ethylenediamine dihydrochloride. After 10 min of incubation at room temperature, the absorbance was measured at 550 nm wavelength with a plate reader (recall, Grodig, […]).

SMILES | CC50 [1] | Cell viability (%) [2] | inhibition at 5 µM [3] | IC50 [4]
N#Cc1ccc(NC(=O)c2cc(-c3ccc(F)cc3F)ccc2O)cc1 [compound 10, N-(4-cyanophenyl)-2′,4′-difluoro-4-hydroxy-[1,1′-biphenyl]-3-carboxamide] | 14.4 µM | 96.24 ± 2.29% | 13.9 ± 1.23% | > 10 µM
O=c1oc2ccc(-c3ccc(F)cc3F)cc2c(=O)n1-c1ccccc1C(F)(F)F [compound 17, 6-(2,4-difluorophenyl)-3-(2-(trifluoromethy)phenyl)-2H-benzo[e][1,3]oxazine-2,4(3H)-dione] | 15.1 µM | 95.53 ± 3.86% | 31.6 ± 4% | > 10 µM
N#Cc1cccc(-n2c(=O)oc3ccc(-c4ccc(F)cc4F)cc3c2=O)c1 [compound 21, 3-(6-(2,4-difluorophenyl)-2,4-dioxo-2H-benzo[e][1,3]oxazin-3(4H)-yl)benzonitrile] | 14.9 µM | 102.79 ± 1.93% | 34 ± 6.98% | > 10 µM
O=C(Nc1ccc(Cl)cc1F)c1cc(-c2ccc(F)cc2F)ccc1O [compound 1, N-(4-chloro-2-fluorophenyl)-2′,4′-difluoro-4-hydroxybiphenyl-3-carboxamide] | 17.9 µM | 77.54 ± 1.17% | 44.3 ± 7.93% | 7.94 µM
O=C(Nc1ccccc1C(F)(F)F)c1cc(-c2ccc(F)cc2F)ccc1O [compound 5] | > 20 µM | 99.37 ± 3.71% | 42.8 ± 6.51% | > 10 µM
O=c1oc2ccc(-c3ccc(F)cc3F)cc2c(=O)n1-c1ccc(C(F)(F)F)cc1 [compound 19, 6-(2,4-difluorophenyl)-3-(4-(trifluoromethyl)phenyl)-2H-benzo[e][1,3]oxazine-2,4(3H)-dione] | 15.5 µM | 103.01 ± 2.51% | 16.9 ± 4.61% | 0.75 µM
C#Cc1cccc(NC(=O)c2cc(-c3ccc(F)cc3F)ccc2O)c1 [compound 8, N-(3-ethynylphenyl)-2′,4′-difluoro-4-hydroxy-[1,1′-biphenyl]-3-carboxamide] | > 20 µM | 62.95 ± 0.85% | 40.6 ± 2.01% | 2.45 µM
O=c1oc2ccc(-c3ccc(F)cc3F)cc2c(=O)n1-c1ccc(F)c(F)c1 [compound 15] | 9.96 µM | 72.15 ± 0.43% | 17.4 ± 7.49% | 0.61 µM
O=C(Nc1ccc(C(F)(F)F)cc1)c1cc(-c2ccc(F)cc2F)ccc1O [compound 7, 2′,4′-difluoro-4-hydroxy-N-(4-(trifluoromethyl)phenyl)-[1,1′-biphenyl]-3-carboxamide] | 10.4 µM | 85.22 ± 3.83% | 51.5 ± 6.25% | 0.64 µM
N#Cc1ccc(-n2c(=O)oc3ccc(-c4ccc(F)cc4F)cc3c2=O)cc1 [compound 22, 4-(6-(2,4-difluorophenyl)-2,4-dioxo-2H-benzo[e][1,3]oxazin-3(4H)-yl)benzonitrile] | > 20 µM | 108.33 ± 1.10% | 29.4 ± 5.48% | 0.55 µM
O=C(O)c1cc(-c2ccc(F)cc2F)ccc1O [Diflunisal, reference compound] | > 20 µM | 103.82 ± 1.78% | 23.9 ± 1.88% | > 10 µM
COc1ccc(-n2c(=O)oc3ccc(-c4ccc(F)cc4F)cc3c2=O)cc1OC [compound 23, 6-(2,4-difluorophenyl)-3-(3,4-dimethoxyphenyl)-2H-benzo[e][1,3]oxazine-2,4(3H)-dione] | > 20 µM | 103.05 ± 4.03% | 21.2 ± 2.49% | 0.47 µM
O=C(Nc1cccc(C(F)(F)F)c1)c1cc(-c2ccc(F)cc2F)ccc1O [compound 6, 2′,4′-difluoro-4-hydroxy-N-(3-(trifluoromethyl)phenyl)[1,1′-biphenyl]-3-carboxamide] | 14.3 µM | 96.73 ± 1.18% | 59.2 ± 2.28% | 0.71 µM
COc1ccc(NC(=O)c2cc(-c3ccc(F)cc3F)ccc2O)cc1OC [compound 11, N-(3,4-dimethoxyphenyl)-2′,4′-difluoro-4-hydroxy-[1,1′-biphenyl]-3-carboxamid] | > 20 µM | 98.87 ± 2.06% | 51.9 ± 6.5% | 1.5 µM
COc1cccc(-n2c(=O)oc3ccc(-c4ccc(F)cc4F)cc3c2=O)c1 [compound 24, 6-(2,4-difluorophenyl)-3-(3-methoxyphenyl)-2H-benzo[e][1,3]oxazine-2,4(3H)-dione] | > 20 µM | 105.53 ± 4.7% | 30.8 ± 5.77% | 1.95 µM
COc1cccc(NC(=O)c2cc(-c3ccc(F)cc3F)ccc2O)c1 [compound 12, 2′,4′-difluoro-4-hydroxy-N-(3-methoxyphenyl)-[1,1′-biphenyl]-3-carboxamide] | > 20 µM | 104.90 ± 2.62% | 40.8 ± 2.65% | 2.24 µM
O=C(Nc1ccc(F)cc1F)c1cc(-c2ccc(F)cc2F)ccc1O [compound 2, N-(2,4-difluorophenyl)-2′,4′-difluoro-4-hydroxybiphenyl-3-carboxamide] | > 20 µM | 109.62 ± 3.37% | 32.2 ± 5.58% | 0.95 µM
O=c1oc2ccc(-c3ccc(F)cc3F)cc2c(=O)n1-c1ccc(F)cc1F [compound 14, 3,6-bis(2,4-difluorophenyl)-2H-benzo[e][1,3]oxazine-2,4(3H)-dione] | 12.7 µM | 96.49 ± 1.86% | 42.3 ± 6.62% | 1.26 µM
C#Cc1cccc(-n2c(=O)oc3ccc(-c4ccc(F)cc4F)cc3c2=O)c1 [compound 20, 6-(2,4-difluorophenyl)-3-(3-ethynylphenyl)-2H-benzo[e][1,3]oxazine-2,4(3H)-dione] | 11 µM | 88.38 ± 4.65% | 57.5 ± 3.25% | 1.63 µM
O=C(Nc1ccc(F)c(F)c1)c1cc(-c2ccc(F)cc2F)ccc1O [compound 3] | 14.6 µM | 78.42 ± 3.79% | 47.4 ± 5.58% | 0.79 µM
O=c1oc2ccc(-c3ccc(F)cc3F)cc2c(=O)n1-c1cccc(C(F)(F)F)c1 [compound 18, 6-(2,4-difluorophenyl)-3-(3-(trifluoromethyl)phenyl)-2H-benzo[e][1,3]oxazine-2,4(3H)-dione] | 13 µM | 100.13 ± 0.94% | 62.9 ± 2.65% | 0.55 µM
